Laboratory results: PubChem BioAssay (NCI)
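Briefly, cells in 96-well plates were exposed to five compound concentrations for 48 h, and endpoints were estimated by linear interpolation. TGI: total growth inhibition.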

Legend:
Test in all cases: NCI anticancer screen, dose series, 48 h
[1] = system: SF-295 CNS
[2] = system: NCI-H522 lung
[3] = system: ACHN renal
[4] = system: M14 melanoma
[5] = system: MALME-3M melanoma
[6] = system: SNB-19 CNS
[7] = system: HOP-92 NSCLC
[8] = system: COLO 205 colon
[9] = system: HCT-116 colon
[10] = system: UO-31 renal
[11] = system: HL-60(TB) leukemia
[12] = system: SK-MEL-2 melanoma
[13] = system: A549 NSCLC
[14] = system: OVCAR-5 ovarian
[15] = system: MOLT-4 leukemia
[16] = system: HCT-15 colon
[17] = system: PC-3 prostate
[18] = system: MCF7 breast

Compound | TGI [1] [µM] | TGI [2] [µM] | TGI [3] [µM] | TGI [4] [µM] | TGI [5] [µM] | TGI [6] [µM] | TGI [7] [µM] | TGI [8] [µM] | TGI [9] [µM] | TGI [10] [µM] | TGI [11] [µM] | TGI [12] [µM] | TGI [13] [µM] | TGI [14] [µM] | TGI [15] [µM] | TGI [16] [µM] | TGI [17] [µM] | TGI [18] [µM]
CCc1cc2c(O)c(c1)Cc1cc(CC)cc(c1O)Cc1cc(CC)cc(c1O)Cc1cc(CC)cc(c1O)Cc1cc(CC)cc(c1O)Cc1cc(CC)cc(c1O)Cc1cc(CC)cc(c1O)C2 | > 100 | > 100 | > 100 | > 100 | > 100 | 71.7 | > 100 | > 100 | > 100 | > 100 | > 100 | > 100 | > 100 | > 100 | > 100 | > 100 | – | –
CC1(C)c2ccccc2N2O[C@@H]3C(=O)N(c4ccccc4)C(=O)[C@@H]3C21c1ccccc1 (stereo partly drawn) | > 100 | > 100 | – | > 100 | > 100 | > 100 | – | > 100 | – | > 100 | > 100 | > 100 | > 100 | – | > 100 | > 100 | – | –
COC(=O)c1c(-c2cc(OC)c(OC)c(OC)c2)oc2ccccc2c1=O | > 100 | > 100 | > 100 | > 100 | > 100 | > 100 | > 100 | > 100 | > 100 | > 100 | > 100 | > 100 | > 100 | > 100 | > 100 | > 100 | – | –
CC(C)(C)[C@H]1CO[C@]2(c3ccccc3)[C@@H]3C[C@@H]3C(=O)N12 | > 100 | > 100 | > 100 | > 100 | > 100 | > 100 | > 100 | > 100 | – | > 100 | > 100 | > 100 | > 100 | > 100 | – | > 100 | – | –
CCOC(=N)CC(=O)Nc1ccccc1 | > 100 | > 100 | > 46.4 | > 46.4 | > 46.4 | > 100 | – | > 46.4 | > 46.4 | > 46.4 | > 100 | > 31.6 | > 46.4 | > 100 | > 31.6 | > 46.4 | – | –
CC(=O)c1ccccc1NC(=O)C(=O)C(C(=O)c1ccccc1-c1ccccc1)C1OC(=O)c2ccccc21 (stereo not drawn) | 52.4 | 31 | 51.2 | 35.4 | 34.3 | 58.9 | – | 46.1 | 32.5 | 32.8 | 81.2 | 40.5 | 80.4 | 64.9 | 93 | 34.9 | – | –
CCN(CC)C(=S)SCC(=O)Nc1nc2c(s1)CCCC2 | > 100 | 65.3 | > 100 | > 100 | > 100 | > 100 | > 100 | > 100 | > 100 | > 100 | 47.6 | > 100 | > 100 | > 100 | > 100 | > 100 | – | –
CC1(C)C(=O)C(C)(C)C1=NNC(N)=S | > 100 | > 100 | > 100 | > 100 | > 100 | > 100 | > 100 | > 100 | > 100 | > 100 | > 100 | – | > 100 | > 100 | > 100 | > 100 | – | –
Cn1c(=O)cc2[nH]c3ccccc3n2c1=O | > 100 | – | > 100 | > 100 | > 100 | > 100 | > 100 | 29.9 | – | > 100 | > 100 | > 100 | > 100 | > 100 | > 100 | > 100 | – | –
COC(=O)CC(C(C(=O)OC)C(=O)OC)N1C(=O)OC(c2ccccc2)C1c1ccccc1 (stereo not drawn) | > 100 | > 100 | > 100 | > 100 | > 100 | > 100 | > 100 | > 100 | > 100 | > 100 | > 100 | > 100 | > 100 | > 100 | > 100 | > 100 | – | –
COc1ccc(OC)c(NC(=O)C(=O)CC(=O)c2sc(-n3nc(-c4ccccc4)cc3-c3ccccc3)nc2C)c1 | > 100 | > 100 | – | > 100 | > 100 | > 100 | – | > 100 | > 100 | > 100 | > 100 | > 100 | > 100 | > 100 | > 100 | > 100 | – | –
Cc1ccc(/C=C/C(=O)c2sc(-n3nc(-c4ccccc4)cc3-c3ccccc3)nc2C)cc1 | > 100 | > 100 | > 100 | – | > 100 | – | > 100 | > 100 | – | > 100 | > 100 | > 100 | > 100 | > 100 | > 100 | > 100 | – | –
COc1cc2c(oc(=O)c3cc4cc([Si](C)(C)C)oc4c(OC)c32)c2cccc(O)c12 | > 100 | > 100 | > 100 | > 100 | > 100 | > 100 | > 100 | > 100 | > 100 | > 100 | > 100 | > 100 | > 100 | > 100 | > 100 | > 100 | – | –
CC1=NN2C(c3ccc([N+](=O)[O-])cc3)=CSC2=NC(C)(C)C1 | > 100 | > 100 | > 100 | > 100 | > 100 | > 100 | > 100 | > 100 | > 100 | > 100 | > 100 | > 100 | > 100 | > 100 | > 100 | > 100 | – | –
C[C@]12CC[C@H](O)CC1=CC[C@@H]1C2CC[C@]2(C)C(=O)NC(=O)CC12 (stereo partly drawn) | > 100 | > 100 | > 100 | > 100 | > 100 | > 100 | > 100 | > 100 | > 100 | > 100 | > 100 | > 100 | > 100 | > 100 | > 100 | > 100 | – | –
Nc1nc(N)c2ncn(CCOC(c3ccccc3)P(=O)(O)O)c2n1 (stereo not drawn) | > 100 | > 100 | > 100 | – | > 100 | > 100 | – | > 100 | > 100 | > 100 | > 100 | > 100 | > 100 | > 100 | > 100 | > 100 | – | –
CC(C)OC/N=C(/N)NC#N | > 100 | > 100 | > 100 | > 100 | > 100 | > 100 | > 100 | > 100 | > 100 | > 100 | > 100 | > 100 | > 100 | > 100 | > 100 | 33.7 | – | –
CC(C)(C)OC(=O)[C@@H]1ON2O[C@H](OC3CCCC3(c3ccccc3)c3ccccc3)C[C@H]3OC(=O)[C@@H]1[C@H]32 (stereo partly drawn) | > 100 | > 100 | > 100 | > 100 | – | > 100 | – | > 100 | > 100 | > 100 | – | 51.8 | > 100 | > 100 | – | > 100 | > 100 | > 100
COc1cc([C@@H]2c3cc4c(cc3[C@@H](OC(=O)c3cccc(N)c3)C3COC(=O)[C@@H]32)OCO4)cc(OC)c1O (stereo partly drawn) | 35.4 | – | 15.3 | 28.3 | > 56.3 | > 100 | – | > 45.6 | > 100 | 26.4 | > 41.2 | 73.3 | 25.9 | 60.1 | > 59.8 | > 52.6 | – | –
Cc1ccc(N=C2N=C(N3CC(C)OC(C)C3)c3ccccc32)cc1 (stereo not drawn) | > 100 | – | > 100 | 56.5 | 99.4 | > 100 | 26.5 | > 100 | 48.8 | 54.2 | – | 70.4 | > 100 | > 100 | 47.8 | > 100 | – | –
CSc1ccc(NC(=O)C2c3[nH]c4ccccc4c3C3CCC(C(C)(C)C)CC3C2C(=O)O)cc1 (stereo not drawn) | 38.5 | 37.4 | 32 | 44.6 | 46.8 | 80.2 | 53 | 32 | 27.5 | 61.6 | 23 | – | 30.9 | – | 31.4 | > 100 | – | –
C=CCCCN1CCCC(C)C1=S (stereo not drawn) | > 100 | > 100 | > 100 | > 100 | > 100 | > 100 | > 100 | > 100 | > 100 | > 100 | > 100 | > 100 | > 100 | > 100 | > 100 | > 100 | – | –
N#Cc1ccc(Oc2ccccc2)cc1C#N | > 100 | 57.2 | > 100 | > 100 | > 100 | > 100 | > 100 | 68.6 | > 100 | > 100 | > 100 | > 100 | > 100 | > 100 | > 100 | 43.3 | – | –
C(=C\C(Sc1ccccc1)c1ccccc1)/NNC1=NC(c2ccccc2)C(c2ccccc2)=NN1 (stereo not drawn) | > 100 | > 100 | > 100 | > 100 | > 100 | > 100 | 80.7 | > 100 | > 100 | > 100 | 37.6 | > 100 | > 100 | > 100 | 77.9 | > 100 | – | –
CS(=O)(=O)OCCCSCCSCCCOS(C)(=O)=O | > 100 | > 100 | – | > 100 | – | > 100 | > 100 | > 100 | > 100 | > 100 | > 100 | – | > 100 | > 100 | > 100 | > 100 | > 100 | > 100
c1ccc2c(c1)Cc1c(Cc3csc4ccccc34)ccc3cccc-2c13 | > 100 | > 100 | > 100 | > 100 | > 100 | > 100 | > 100 | > 100 | > 100 | > 100 | > 100 | > 100 | > 100 | > 100 | > 100 | > 100 | – | –
CC1(C)Cc2c(oc3ncnc(N)c23)CS1 | > 100 | > 100 | > 100 | > 100 | > 100 | > 100 | – | > 100 | > 100 | > 100 | – | > 100 | > 100 | > 100 | > 100 | > 100 | – | –
O=C(CC1C(=O)Nc2ccccc2S1(=O)=O)Nc1ccc(Cl)cc1 (stereo not drawn) | > 100 | 36.4 | 71.9 | > 100 | 86.9 | 57.1 | 44.5 | – | > 100 | 66.9 | 42.1 | 65.3 | > 100 | > 100 | 37.6 | > 100 | – | –
COc1ccc(OC)c(/C=C2\CCc3ccccc3C2=O)c1 | 12.4 | 4.25 | 81.2 | 16.3 | 18.5 | 28.9 | 9.32 | 13.5 | 20.6 | – | 5.96 | 12.8 | 65.6 | 25.5 | 19.8 | 29.3 | – | –
COc1c(I)c(OC)c2c(c1I)O[C@@H]1OCC[C@H]21 | > 100 | – | > 100 | 50.5 | 73.4 | > 100 | 67.1 | 57.8 | > 100 | 66.3 | 55.6 | 41.2 | > 100 | > 100 | 54.4 | > 100 | – | –
